Assay results published in patent US20240300934A1, “COMPOUNDS FOR MODULATING MYCOBACTERIUM TUBERCULOSIS RESPONSE” (priority 2021, published 2024).
≈ marks a conversion by molar mass, not a printed value. Where two headings read alike, the source gives them in different places.

Key:
J774 cells = experiment: Intracellular drug accumulation assay in J774 cells; conditions: 24 h exposure; uninfected J774 cells
Mtb [1] = experiment: Mtb growth assay in cholesterol media (OD600); assay type: cell-based, Mycobacterium tuberculosis; conditions: for Growth inhibition in cholesterol media phenotype: compared to C6
Mtb in J774 cells = experiment: Mtb growth in J774 macrophage-like cells (mKO fluorescence); assay type: cell-based, Mycobacterium tuberculosis; conditions: for Mtb growth in J774 cells (in words): 10 μM, 6 days post-infection; for Inhibition of Mtb growth in J774 cells phenotype: compared to C6; for % Reduction of Intracellular Infection (J774.1 cells) at 10 μM cmpd: 10 μM compound
Protocol: For the tertiary screen of selected hit compounds in J774 murine macrophage-like cells, 30,000 J774 cells/well were seeded in bar-coded 384-well black, clear bottom plates in a 30 μl volume in J774 infection media (DMEM+10% FBS+1 mM sodium pyruvate+2 mM L-glutamine) using a ThermoFisher Multidrop Combi reagent dispenser, one day prior to assay start. On the day of the assay, log-phase Mtb constitutively expressing mKO were pelleted and resuspended in 1 ml basal uptake buffer (0.5% bovine serum albumin+25 mM dextrose+0.5 mM MgCl2+1 mM CaCl2+0.1% gelatin in phosphate buffered saline (PBS), passed 6× though a tuberculin syringe with a 25 G×5/8″ needle, then resuspended in J774 infection media to a final OD600=0.2. 10 μl of this bacterial suspension was added to each well of the 384-well plates containing the J774 cells, followed by addition of 10 μl of the appropriate compounds (pre-aliquoted in v-bottom plates in a 1:1 mix of PBS:J774 infection media). Addition of Mtb and compounds were conducted using a Janus Ministation. For each test plate, two columns of controls (16 wells each) were included, with one column consisting of treatment with DMSO as a carrier control (negative control), and the other column consisting of treatment with 5 μM rifampicin (positive control). This tertiary assay was done as a dose-response assay in duplicate runs, with compounds tested beginning at a final concentration of 20 μM and two-fold dilutions down to 0.039 μM. Plates were kept in humidified ziplock bags in a 37° C., 5% CO2 incubator. 6 days post-infection, mKO fluorescence signal was read using a PerkinElmer EnVision multimode plate reader (bottom read filter, excitation 530/8 nm, Bodipy TMR D555 single mirror, emission 579/25 nm). mKO fluorescence in DMSO-treated control samples were defined as 100% growth, and fluorescence observed in treatment conditions calculated as a percentage from that set value.
For J774 infection in 96-well plates, 180,000 J774 cells were seeded per well in 180 μl of J774 infection media one day prior to infection. On the day of the assay, log-phase Mtb constitutively expressing mKO were pelleted and resuspended in 1 ml basal uptake buffer, passed 6× though a tuberculin syringe with a 25 G×5/8″ needle, then resuspended in J774 infection media to a final OD600=0.2. Media was removed from 96-well plate containing the J774 cells, with 140 μl of fresh J774 infection media added back to each well. 40 μl of the Mtb suspension at OD600=0.2 was added to each well, followed by addition of appropriate concentration of compound or DMSO in a 20 μl final volume in J774 infection media (compound final concentration 10 μM, rifampicin final concentration 5 μM, DMSO final concentration 0.1%/well). Bacterial mKO fluorescence was read immediately after infection using a Biotek Synergy Neo2 microplate reader (bottom read monochromator, excitation 543/10 nm, emission 565/10 nm), and again 6 days post-infection. Plates were kept in humidified ziplock bags in a 37° C., 5% CO2 incubator. mKO fluorescence in DMSO-treated control samples were defined as 100% growth, and fluorescence observed in treatment conditions calculated as a percentage from that set value.

[2] = tested on: Mtb in bone marrow-derived macrophages (BMDMs); experiment: Mtb growth in primary murine bone marrow-derived macrophages (CFU); assay type: cell-based, Mycobacterium tuberculosis; conditions: 10 μM; added 2 hrs post-infection; eight-day time-course
Protocol: C57BL/6J wild type mice (Jackson Laboratories) were used for extraction of bone marrow-derived macrophages. Cells were harvested and expanded in DMEM containing 10% FBS, 15% L-cell conditioned media, 2 mM L-glutamine, 1 mM sodium pyruvate, and penicillin/streptomycin as needed in a 37° C. incubator in a 5% CO2 atmosphere. […] Macrophages were lysed with water containing 0.01% sodium dodecyl sulfate and a dilution series of the samples plated on 7H10 agar for CFU determination.

[3] = tested on: rv2390c′::GFP reporter Mtb strain; assay type: cell-based, Mycobacterium tuberculosis; conditions: for rv2390c′::GFP reporter signal upon Mtb exposure to high [Cl−] (in words): 10 μM, 250 mM NaCl; for rv2390c′::GFP Cl− response phenotype: compared to C6
[4] = Mouse liver microsomal stability; assay type: in vitro ADME; conditions: mouse liver microsomes; for half-life: read-out: MLM t1/2
Protocol: (§1) Assays examining mouse and human liver microsomal stability, kinetic aqueous solubility, mouse and human plasma protein binding and stability, and human cytochrome P450 inhibition characteristics of the compounds were run by BioDuro, Incorporated, using standard protocols as previously described (Wang et al, 2020). hERG inhibition assays were also performed by BioDuro, Incorporated.

[5] = Kinetic aqueous solubility in pH 7.4 PBS; assay type: physicochemical; conditions: read-out: Kinetic Aqueous Solubility S
Protocol: as §1

[6] = Mouse pharmacokinetics, single oral dose; assay type: in vivo, CD-1 mice; conditions: for Kp at 5 h / AUC(0-t): female, single 25 mg/kg po dose; for Kp at 5 h: CD-1, mouse, lung vs plasma, read-out: Mouse PK Clung/Cplasma at t = 5 h; for AUC(0-t): mouse, CD-1 mice, read-out: Mouse PK AUC0-5h
Protocol: Blood samples were collected in K2EDTA coated tubes pre-dose, 0.5, 1, 3 and 5 hrs post-dose, placed on ice, and centrifuged to recover plasma. The recovered plasma was kept at −80° C. as needed prior to analysis, which was performed as previously described (Wang et al, 2020). In brief, a Sciex Applied Biosystems Qtrap 4000 triple-quadrupole mass spectrometer coupled to an Agilent 1260 HPLC system was used for HPLC coupled to tandem mass spectrometry (LC-MS/MS) quantitative analysis of the samples, with chromatography attained using an Agilent Zorbax SB-C8 column (2.1×30 mm; particle size, 3.5 μm) and a reverse phase gradient elution. The aqueous mobile phase consisted of Milli-Q deionized water with 0.1% formic acid (A), while the organic mobile phase was 0.1% formic acid in acetonitrile (B). The gradient set-up was as follows: 5-90% B over 2 mins, 1 min at 90% B, then an immediate drop to 5% B and an additional 1 min at 5% B. Quantification of molecules was carried out via multiple-reaction monitoring of parent/daughter transitions in electrospray positive-ionization mode, and sample analyses accepted if quality control and standard samples had concentrations within 20% of the nominal concentration. Preparation of compounds for generation of standard curves and quality control spiking solutions were performed as previously described (Wang et al, 2020). Data were processed using Analyst software (Version 1.6.2; Applied Biosystems Sciex).

Mtb [7] = experiment: C3HeB/FeJ murine Mtb infection model; assay type: in vivo, C3HeB/FeJ mice; conditions: 150 mg/kg, 5 days/week oral gavage for 2 weeks, started 2 or 6 weeks post-infection
Protocol: C3HeB/FeJ wild type mice (Jackson Laboratories) were infected intranasally with 10^3 CFUs of Mtb (35 μl), under light anesthesia with 2% isoflurane (MacGilvary et al, 2019; Sukumar et al, 2014; Tan et al, 2013). […] The next day the suspension was homogenized by bead beating with 5 mm steel beads in a TOMY microtube mixer (2×20 s), and stored at 4° C. until use. […] Administration began at two or six weeks post-infection as indicated. At time of sacrifice, the left lobe and accessory right lobe of the lung were homogenized in PBS+0.05% Tween 80 and serial dilutions plated on 7H10 agar plates with 100 μg/ml cycloheximide for bacterial load determination. The remaining three right lobes were fixed in 4% PFA in PBS. One lobe was used for histological analysis by standard hematoxylin and eosin (H&E) staining (Tufts Comparative Pathology Services). A Nikon Eclipse E400 with a SPOT insight color digital camera was used to image the histology samples.

[8] = tested on: murine bone marrow derived macrophages phagosome; experiment: Phagosomal maturation assays with sensor beads; assay type: cell-based, mouse; conditions: 10 μM
Protocol: Carboxyfluorescein (pH readout), DQ-BSA/Alexa Fluor 594 (AF594) (proteolysis readout), and 10,10′-Bis[3-carboxylpropyl]-9,9′-biacridinium (BAC)/AF594 (Cl^− readout) beads were generated as previously described (Podinovskaia et al, 2013; Tan et al, 2013; Tan et al, 2017; Yates et al, 2008). Bone marrow-derived macrophages were isolated from C57BL/6J mice (Jackson Laboratories) and maintained as described above. 2×10^5 macrophages/well were seeded into 96-well clear bottom black plates, and utilized in assays one-two days post-seeding. […] Assay buffer consisted of PBS, pH 7.2, supplemented with 5% FBS, 5 mM dextrose, 1 mM CaCl2, 2.7 mM KCl, and 0.5 mM MgCl2 in the case of assays with the carboxyfluorescein or DQ-BSA/AF594 beads (Buter et al, 2019; Dutta et al, 2020). For assays with the BAC/AF594 beads, assay buffer consisted of PBS, pH 7.2, supplemented with 5% FBS, 5 mM dextrose, 1 mM calcium acetate, 1.35 mM K2SO4, and 0.5 mM MgSO4 (Tan et al, 2013). Sensor beads at ˜2-5 beads/macrophage in appropriate assay buffer were finally added, with data acquisition on a Biotek Synergy H1 microplate reader with bottom read signal detection started within 2-3 minutes of bead addition. Excitation/emission wavelengths were 450 nm/520 nm and 490 nm/520 nm for carboxyfluorescein, 490 nm/520 nm for DQ-BSA, 365 nm/505 nm for BAC, and 590 nm/617 nm for AF594. Each experiment was run with a total of 3-5 replicate wells/condition, with temperature maintained at 37° C. throughout the assay. Wells were read every 2 minutes for 2 hours for the carboxyfluorescein bead assays, every 2 minutes for 4 hours for the DQ-BSA/AF594 bead assays, and every 1 minute for 2 hours for the BAC/AF594 bead assays. Analyses of the results were performed as previously described (Buter et al, 2019; Dutta et al, 2020; Podinovskaia et al, 2013; Tan et al, 2013).

| SMILES | Growth inhibition in cholesterol media phenotype (Mtb [1]) | Mtb growth in J774 cells (in words) (Mtb in J774 cells) | Inhibition of Mtb growth in J774 cells phenotype (Mtb in J774 cells) | Mtb bacterial load / growth in primary murine BMDM (in words) [2] | rv2390c′::GFP reporter signal upon Mtb exposure to high [Cl−] (in words) [3] | rv2390c′::GFP Cl− response phenotype [3] | half-life [4] | % Reduction of Intracellular Infection (J774.1 cells) at 10 μM cmpd (Mtb in J774 cells) | Kp at 5 h [6] | AUC(0-t) ([6]; plasma) | also measured |
| --- | --- | --- | --- | --- | --- | --- | --- | --- | --- | --- | --- |
| c1ccc2oc(N3CCN(Cc4cncnc4)CC3)nc2c1 [JSF-4297, 2-(4-(pyrimidin-5-ylmethyl)piperazin-1-yl)benzo[d]oxazole] | N | loss of the ability to inhibit Mtb growth | N | loss of the ability to inhibit Mtb growth | lost the ability | N |  |  |  |  | intracellular accumulation in J774 cells (J774 cells): no detectable accumulation; Mtb growth in cholesterol media (in words) (Mtb [1]; 10 μM, OD600): no longer inhibited Mtb growth in cholesterol media |
| O=C(c1cnc2ccccn12)N1CCCC(CCc2cccc(C(F)(F)F)c2)C1 (centres unmarked) [Compound C5, Imidazo[1,2-a]pyridin-3-yl(3-(3-(trifluoromethyl)phenethyl)piperidin-1-yl)methanone] |  | Mtb growth inhibition |  | significant decrease in bacterial load | increased rv2390c′::GFP reporter signal |  |  |  |  |  | MLM t1/2 [4]: 4.98 min; inhibition at 10 µM (Mtb in J774 cells; Mycobacterium tuberculosis, J774CELLS, J774, 144 h, read-out: % inhibition compared to Rif in J774 at 10 μM): 50.9 ± 3.2%; inhibition at 20 µM (Mtb in J774 cells; Mycobacterium tuberculosis, J774CELLS, J774, 144 h, read-out: % inhibition compared to Rif in J774 at 20 μM): 55%; solubility kinetic ([5]; pH 7.4 phosphate buffered saline (PBS)): 6.67 µM (≈ 2.68 µg/mL); rv2390c′::GFP response phenotype ([3]; screen hits, high chloride (250 mM NaCl, pH 6.4)): Increases induction in high; AUC0-5 h ([6]; single 5 mg/kg oral (po) dose, plasma, CD-1 mice (n=2)): 42 ng·h/mL |
| CCSc1ncc(CN2CCN(c3nc4ccc(C#N)cc4o3)CC2)cn1 [JSF-4538, 2-(4-((2-(ethylthio)pyrimidin-5-yl)methyl)piperazin-1-yl)benzo[d]oxazole-6-carbonitrile] |  |  |  |  |  | Y | 25.5 min | 36.4 ± 2.6% | 0.3 | 98700 ng·h/mL | Mtb growth in vivo (lung CFUs) (Mtb [7]): inhibits Mtb growth in vivo |
| CCSc1ncc(CN2CCN(c3nc4cc(C(F)(F)F)ccc4o3)CC2)cn1 [JSF-4526, 2-(4-((2-(ethylthio)pyrimidin-5-yl)methyl)piperazin-1-yl)-5-(trifluoromethyl)benzo[d]oxazole] |  |  | Y |  |  | Y | 32 min | 52.4 ± 1.4% | 0.44 | 27500 ng·h/mL | solubility kinetic ([5]; PBS, pH 7.4, aqueous buffer, kinetic from dmso stock, Table 2): 38.6 µM (≈ 16.3 µg/mL) |
| CCSc1ncc(CN2CCN(c3nc4ccccc4[nH]3)CC2)cn1 [JSF-4299, 2-(4-((2-(ethylthio)pyrimidin-5-yl)methyl)piperazin-1-yl)-1H-benzo[d]imidazole] | Y |  | Y |  |  | Y |  |  |  |  | macrophage phagosomal proteolytic activity ([8]; DQ-BSA/AF594 beads): decrease in the extent of proteolysis; macrophage phagosomal acidification ([8]; carboxyfluorescein beads): delay in acidification |
